Laboratory results as given in paper PMC11872639 (Food Chemistry: Molecular Sciences, 2025).
Where two headings read alike, the source gives them in different places. Values belong to the molecule of their own block, whether it stands above or below them.

How the values were obtained:
TAS1R1-VFT = target: T1, TAS1R1-VFT (Homo sapiens, UniProt Q7RTX1); assay: Ligand binding by intrinsic tryptophan fluorescence, TAS1R1-VFT
T1 construct: followed by TAS1R1-VFT (Phe21-Ser495) or TAS1R2-VFT (Ala22-Ser493) and a second His6-tag; His6-tag (thrombin-cleavable) (N); made in house
T1 sequence (Q7RTX1 21-495): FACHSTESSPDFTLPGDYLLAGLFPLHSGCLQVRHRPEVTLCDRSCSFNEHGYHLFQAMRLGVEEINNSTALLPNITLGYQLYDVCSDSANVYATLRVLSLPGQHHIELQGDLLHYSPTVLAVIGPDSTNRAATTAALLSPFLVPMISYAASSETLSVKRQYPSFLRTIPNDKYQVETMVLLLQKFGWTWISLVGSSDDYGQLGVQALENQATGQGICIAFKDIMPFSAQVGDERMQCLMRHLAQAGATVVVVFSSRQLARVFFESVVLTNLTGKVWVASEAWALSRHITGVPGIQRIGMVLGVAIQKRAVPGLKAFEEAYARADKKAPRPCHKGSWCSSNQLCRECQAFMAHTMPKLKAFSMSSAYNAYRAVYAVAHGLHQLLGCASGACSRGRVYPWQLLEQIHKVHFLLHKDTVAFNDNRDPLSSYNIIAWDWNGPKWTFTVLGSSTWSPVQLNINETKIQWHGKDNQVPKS
Method: The intrinsic fluorescence of TAS1R-VFTs was measured using a Cary Eclipse spectrofluorometer (Varian Instruments, Palo Alto, CA, USA) equipped with a Peltier temperature control unit. […] Ligand solutions were freshly prepared in the same buffer. […] The temperature was kept constant at 20 °C. Fluorescence measurements were corrected for dilution, bleaching and nonspecific buffer quenching. Kd values and standard errors were calculated from a plot of the ratio between the fluorescence intensity variation and the maximum of fluorescence intensity variation versus concentration of total ligand, obtained with a standard non-linear regression method and using a one-site saturation ligand binding equation within SigmaPlot software (version 15.0, Grafiti, Palo Alto, CA, USA). […] The Kd values of ligand-receptor interactions were determined using the equation ΔF/ΔFmax = Bmax [L]/(Kd + [L]), where Kd is the apparent dissociation constant, ΔF is the difference between the fluorescence intensity at a given concentration of ligand and the fluorescence intensity in the absence of ligand, ΔFmax is the difference at infinite ligand concentration [L], Bmax is the maximum fluorescence signal, and [L] corresponds to the concentration of ligands. The reported Kd values are the average of six measurements performed on at least three independently refolded protein samples. […]

TAS1R3-VFT = target: T2, TAS1R3-VFT (Homo sapiens, UniProt Q7RTX0); assay: Ligand binding by intrinsic tryptophan fluorescence, TAS1R3-VFT
T2 construct: pET28-TAS1R3-VFT encodes an N-terminal His6-tag followed by TAS1R3-VFT (Ala21-Ser497) and the Strep-tag II; made in house
T2 sequence (Q7RTX0 21-497): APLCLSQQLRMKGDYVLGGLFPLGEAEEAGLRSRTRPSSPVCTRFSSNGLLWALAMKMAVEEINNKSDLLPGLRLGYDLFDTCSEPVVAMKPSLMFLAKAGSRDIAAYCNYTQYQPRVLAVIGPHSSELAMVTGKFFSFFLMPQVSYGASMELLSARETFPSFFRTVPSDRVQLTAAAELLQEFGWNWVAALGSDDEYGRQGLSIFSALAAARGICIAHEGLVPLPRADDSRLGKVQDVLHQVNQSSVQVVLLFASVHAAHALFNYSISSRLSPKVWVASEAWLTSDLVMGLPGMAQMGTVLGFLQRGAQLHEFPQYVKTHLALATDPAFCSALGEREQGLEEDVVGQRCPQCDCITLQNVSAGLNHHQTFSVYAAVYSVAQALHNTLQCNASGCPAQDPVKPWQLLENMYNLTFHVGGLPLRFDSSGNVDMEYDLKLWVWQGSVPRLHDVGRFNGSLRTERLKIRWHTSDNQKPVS
Method: The intrinsic fluorescence of TAS1R-VFTs was measured using a Cary Eclipse spectrofluorometer (Varian Instruments, Palo Alto, CA, USA) equipped with a Peltier temperature control unit. […] Ligand solutions were freshly prepared in the same buffer. […] The temperature was kept constant at 20 °C. Fluorescence measurements were corrected for dilution, bleaching and nonspecific buffer quenching. Kd values and standard errors were calculated from a plot of the ratio between the fluorescence intensity variation and the maximum of fluorescence intensity variation versus concentration of total ligand, obtained with a standard non-linear regression method and using a one-site saturation ligand binding equation within SigmaPlot software (version 15.0, Grafiti, Palo Alto, CA, USA). […] The Kd values of ligand-receptor interactions were determined using the equation ΔF/ΔFmax = Bmax [L]/(Kd + [L]), where Kd is the apparent dissociation constant, ΔF is the difference between the fluorescence intensity at a given concentration of ligand and the fluorescence intensity in the absence of ligand, ΔFmax is the difference at infinite ligand concentration [L], Bmax is the maximum fluorescence signal, and [L] corresponds to the concentration of ligands. The reported Kd values are the average of six measurements performed on at least three independently refolded protein samples. All compounds were obtained from Sigma-Aldrich. Statistical analyses: Dunnett's test (p ≤ 0.05) was used to determine the statistical significance between data means.

TAS1R2/TAS1R3 = target: T3, TAS1R2/TAS1R3 (Homo sapiens, UniProt Q7RTX0+Q8TE23); assay: Calcium mobilization assay, HEK293T-Gα16gust44 cells expressing TAS1R2/TAS1R3; assay type: cell-based
T3 construct: we performed functional expression of the full-length heterodimeric sweet taste TAS1R2/TAS1R3 receptor using HEK293-derived cells; expressed in transfected cells; host or cells: HEK293T-Gα16gust44 cells transfected with pcDNA6-TAS1R2 and pcDNA4-TAS1R3
T3 sequence (Q8TE23 20-839): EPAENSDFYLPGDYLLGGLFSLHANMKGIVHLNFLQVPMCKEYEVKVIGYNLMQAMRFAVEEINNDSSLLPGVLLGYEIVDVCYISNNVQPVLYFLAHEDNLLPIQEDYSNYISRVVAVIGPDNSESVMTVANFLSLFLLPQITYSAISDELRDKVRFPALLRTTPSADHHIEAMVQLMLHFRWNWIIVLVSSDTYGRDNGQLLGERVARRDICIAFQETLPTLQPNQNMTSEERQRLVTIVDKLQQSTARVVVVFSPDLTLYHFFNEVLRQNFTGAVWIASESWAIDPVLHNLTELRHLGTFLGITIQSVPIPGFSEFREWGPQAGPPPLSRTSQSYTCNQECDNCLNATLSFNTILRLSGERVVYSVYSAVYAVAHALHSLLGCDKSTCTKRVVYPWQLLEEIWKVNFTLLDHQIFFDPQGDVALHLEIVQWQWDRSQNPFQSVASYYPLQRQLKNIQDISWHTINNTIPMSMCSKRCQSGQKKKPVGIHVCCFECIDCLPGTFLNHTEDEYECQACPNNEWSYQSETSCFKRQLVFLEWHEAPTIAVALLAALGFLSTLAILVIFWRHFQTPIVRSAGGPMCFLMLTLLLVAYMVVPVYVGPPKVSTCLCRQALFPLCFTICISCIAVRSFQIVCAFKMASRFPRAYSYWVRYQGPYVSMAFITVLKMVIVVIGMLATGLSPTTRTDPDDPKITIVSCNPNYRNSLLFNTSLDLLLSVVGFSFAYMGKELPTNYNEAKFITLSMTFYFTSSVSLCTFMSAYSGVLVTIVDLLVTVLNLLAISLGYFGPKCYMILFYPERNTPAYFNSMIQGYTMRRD
T3 sequence (Q7RTX0 21-852): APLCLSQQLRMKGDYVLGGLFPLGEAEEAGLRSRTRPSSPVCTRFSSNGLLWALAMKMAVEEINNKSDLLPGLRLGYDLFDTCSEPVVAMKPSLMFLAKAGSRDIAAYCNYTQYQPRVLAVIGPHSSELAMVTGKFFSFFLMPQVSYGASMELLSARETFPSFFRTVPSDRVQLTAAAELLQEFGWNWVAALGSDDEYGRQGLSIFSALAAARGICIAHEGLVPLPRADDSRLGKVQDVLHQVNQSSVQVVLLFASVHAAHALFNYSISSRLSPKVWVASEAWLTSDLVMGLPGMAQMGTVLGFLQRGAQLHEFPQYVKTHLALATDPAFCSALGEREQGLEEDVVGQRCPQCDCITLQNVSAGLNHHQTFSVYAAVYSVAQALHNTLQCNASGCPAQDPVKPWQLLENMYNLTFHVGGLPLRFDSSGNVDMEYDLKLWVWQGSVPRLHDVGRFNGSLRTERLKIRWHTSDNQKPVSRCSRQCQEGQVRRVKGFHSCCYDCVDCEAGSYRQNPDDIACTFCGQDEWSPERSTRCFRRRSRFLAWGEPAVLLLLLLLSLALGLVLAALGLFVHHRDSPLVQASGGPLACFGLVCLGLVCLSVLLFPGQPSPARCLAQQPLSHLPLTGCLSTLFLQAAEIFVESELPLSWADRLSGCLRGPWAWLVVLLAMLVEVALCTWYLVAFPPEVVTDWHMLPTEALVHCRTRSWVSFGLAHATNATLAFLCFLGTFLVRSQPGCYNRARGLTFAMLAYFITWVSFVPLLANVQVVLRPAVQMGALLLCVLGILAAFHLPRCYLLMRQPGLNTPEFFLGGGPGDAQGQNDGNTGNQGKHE
Method: (§1) The synthetic cDNA optimized for human TAS1R2 and TAS1R3 expression was cloned into the pcDNA6-myc-HisA and pcDNA4-myc-HisA vectors, generating the pcDNA6-TAS1R2 and pcDNA4-TAS1R3 plasmids, respectively (Genewiz).
(§2) The stable HEK293T-Gα16gust44 cells were constructed by stable transfection of pcDNA3.1/Hygro-Gα16gust44 plasmid into HEK293T cells using Lipofectamine 2000 (Invitrogen). After 48 h, the cells were selected with 400 μg/mL hygromycin for 2–3 weeks. Thirty individual hygromycin-resistant colonies were expanded and screened for functional expression after transient co-transfection with pcDNA6-TAS1R2 and pcDNA4-TAS1R3 and measurement of calcium responses to sucralose. In the same way, clone selection was done under zeocin selection (250 μg/mL) to generate a stable HEK293T-Gα16gust44-TAS1R3 cell line for further calcium mobilization assays.
(§3) Forty-eight hours before the assay, HEK293T-Gα16gust44 or HEK293T-Gα16gust44-TAS1R3 cells were plated (4 × 10^4 cells/well) on poly-D-lysine-coated 96-well plates. Twenty-four hours later, cells were transiently transfected with pcDNA6-TAS1R2 and pcDNA4-TAS1R3 with Lipofectamine 2000 according to the manufacturer's instructions. As a negative control, HEK293T cells were mock-transfected with the empty expression vector. […] The fluorescence intensity was measured for 90 s after the addition of the compounds. […] All concentration-receptor combinations were measured in triplicate, and each experiment was repeated at least four times. The Ca^2+ changes are expressed as fractional changes in fluorescence light intensity: ΔF/F0 = (F—F0)/F0, where F is the fluorescence light intensity at each point and F0 is the value of emitted fluorescent light before the stimulus application. For the calculation of dose-response relationships, the changes in fluorescence upon stimulus application were averaged, mock-subtracted and baseline-corrected. The resulting dose-response data were fitted using a four-parameter logistic equation. The half-maximal effective concentrations (EC50 values) were calculated using SigmaPlot software.

TAS1R3 = target: T4, TAS1R3 (Homo sapiens, UniProt Q7RTX0); assay: Calcium mobilization assay, HEK293T-Gα16gust44 cells stably expressing TAS1R3 alone; assay type: cell-based
T4 construct: we performed functional expression of the full-length heterodimeric sweet taste TAS1R2/TAS1R3 receptor using HEK293-derived cells; expressed in transfected cells
T4 sequence (Q7RTX0 21-852): T3 sequence (Q7RTX0 21-852)
Method: as §1, §2, §3

[1] = sweet compound alone (Fig. 3, IMP series)
[2] = sweet compound alone (Fig. 5c,d, MSG series)

Kd (TAS1R1-VFT): 0.21 ± 0.06 µM | Kd (TAS1R3-VFT; read-out: Kd TAS1R3-VFT): 1.18 ± 0.33 µM
SMILES: N[C@@H](CC(=O)O)C(=O)O [L-Asp, L-aspartate]

EC50 (TAS1R2/TAS1R3; [1]): 24 ± 2 µM
SMILES: C=C(C)C1CC=C(/C=N/O)CC1 (stereo in doubt) [Perillartine, perillartine]

amplitude of the maximum calcium-induced response of TAS1R3 reduced to (TAS1R3; modulator at 10 mM, CaCl2 stimulation): ~62% | EC50 (TAS1R2/TAS1R3; [1]): 2310 ± 954 µM
SMILES: O=S(=O)(O)NC1CCCCC1 [Cyclamate, cyclamate]

EC50 (TAS1R2/TAS1R3; [1]): 0.97 ± 0.12 µM | EC50 (TAS1R2/TAS1R3; sweet compound alone (Fig. 5a,b, GMP series)): 0.3 ± 0.08 µM | EC50 (TAS1R2/TAS1R3; [2]): 1.09 ± 0.16 µM
SMILES: COC(=O)[C@H](Cc1ccccc1)NC(=O)[C@H](CC(=O)O)NCCC(C)(C)C [Neotame, neotame]

EC50 (TAS1R3; CaCl2 alone, TAS1R3 alone): 47000 ± 13000 µM | max (maximal amplitude, ΔF/F0) (TAS1R3; CaCl2 alone, TAS1R3 alone): 0.37 | max (maximal amplitude, ΔF/F0) (TAS1R3; CaCl2 in the presence of 10 mM IMP, TAS1R3 alone): 0.17 | max (maximal amplitude, ΔF/F0) (TAS1R3; CaCl2 in the presence of 10 mM cyclamate, TAS1R3 alone): 0.14 | EC50 (TAS1R2/TAS1R3; CaCl2 alone, TAS1R2/TAS1R3): 28000 ± 3000 µM | max (maximal amplitude, ΔF/F0) (TAS1R2/TAS1R3; CaCl2 alone, TAS1R2/TAS1R3): 0.40 | max (maximal amplitude, ΔF/F0) (TAS1R2/TAS1R3; CaCl2 in the presence of 10 mM IMP, TAS1R2/TAS1R3): 0.28 | max (maximal amplitude, ΔF/F0) (TAS1R2/TAS1R3; CaCl2 in the presence of 10 mM cyclamate, TAS1R2/TAS1R3): 0.19
SMILES: [Ca+2].[Cl-].[Cl-] [CaCl2]

EC50 (TAS1R2/TAS1R3; [1]): 57 ± 13 µM | EC50 (TAS1R2/TAS1R3; [2]): 56 ± 6 µM | decrease in EC50 values by IMP (synergistic effect) (TAS1R2/TAS1R3; sweetener with IMP vs sweetener alone): 3 fold
SMILES: OC[C@H]1O[C@H](O[C@]2(CCl)O[C@H](CCl)[C@@H](O)[C@@H]2O)[C@H](O)[C@@H](O)[C@H]1Cl [Sucralose, sucralose]

EC50 (TAS1R2/TAS1R3; [1]): 41 ± 29 µM
SMILES: COc1ccc(CCC(=O)c2c(O)cc(O[C@@H]3O[C@H](CO)[C@@H](O)[C@H](O)[C@H]3O[C@@H]3O[C@@H](C)[C@H](O)[C@@H](O)[C@H]3O)cc2O)cc1O [NHDC, neohesperidine dihydrochalcone]

SMILES: N[C@H](CCC(=O)O)C(=O)O [D-Glu, D-glutamate]
impact on the fluorescence intensity of TAS1R1-VFT (TAS1R1-VFT; negative control): no significant impact | Kd TAS1R3-VFT (TAS1R3-VFT; ligand alone, absence of IMP, mean ± SEM, 20 °C, pH 8.0): nb | impact on the fluorescence intensity of TAS1R3-VFT (TAS1R3-VFT; negative control): no significant impact

SMILES: N[C@@H](CCC(=O)O)C(=O)O [L-Glu, L-glutamate]
Kd (TAS1R3-VFT): 0.75 ± 0.2 µM
